Measurements taken from patent US20250092418A1, “METHODS OF GENETICALLY ALTERING A PLANT NIN-GENE TO BE RESPONSIVE TO AUXIN” (NIAB, priority 2023, published 2025).

Assays:
pDgNIN:GUS = test: GUS staining of pDgNIN:GUS hairy roots after treatment with LCO / chitin oligomer signaling molecules; type: in vivo, Datisca glomerata; conditions: 24 hours post treatment with 10^−7M
Method: (§1) For GUS staining the harvested roots were thoroughly cleaned in sterile water and scored under the stereo-fluorescent microscope so that only the transformed roots were harvested for the staining purpose. The roots were fixed in 90% acetone on ice for 1 hour. Subsequently, the acetone was replaced with 50 mM phosphate buffer pH7.2 (Sigma) and the roots were washed twice to remove any acetone. The roots were then moved to the staining solution containing 0.1M Phosphate buffer, 0.25 mM K3[Fe(CN)6](potassium ferricyanide), 0.25 mM K4[Fe(CN)6](potassium ferrocyanide), 0.25% (v/v) Triton X-100 and 1 mM 5-bromo-4-chloro-3-indolyl beta-D-glucuronide (X-Gluc, Thermo). The samples were vacuum infiltrated for 30 minutes and incubated at 37° C. overnight. After staining the tissues were cleared of all the staining solution and stored in 50% ethanol for imaging under the stereomicroscope DX105 F (Leica). For ruthenium red staining the staining solution was prepared (0.1% ruthenium red in sterile water) and a few microliters are added over each section and subsequently washed using sterile deionized water. For toluidine blue staining, 0.1% toluidine blue staining solution was prepared in deionized water and a few microliters are added over each section and subsequently washed using sterile deionized water. […]

pDgNIN2:GUS = test: GUS staining of pDgNIN2:GUS hairy roots after treatment with LCO / chitin oligomer signaling molecules; type: in vivo, Datisca glomerata; conditions: 24 hours post treatment with 10^−7M
Method: as §1

pDR5:NLS-eGFP = pDR5:NLS-eGFP expression in barley STARTS lines post auxin treatment; type: in vivo, Hordeum vulgare; conditions: 50 μM 2,4D
Method: Tissue culture STARTS plants were grown in rooting media for approximately 4 weeks after transfer, and barley seeds were grown on water-agar plates for seven days after germination, after which seedlings were transferred to 1% Hoagland's media plates. […] The root portion of the plates was covered with aluminum foil. The plants were maintained under a 16 h-day and 8 h-night cycle at 24-22° C. Tissue was harvested four weeks after treatment for phenotyping and RNA extraction.
Auxin treatment was reported to induce nodule like-structures (NLS) in rice (Hiltenbrand et al., 2016). Since it was established in the strawberry system that expressing pDR5:DryasNIN could form NLS with some proto-nodule identity under the influence of auxin, lines in barley (Hordeum vulgare var Golden promise) were raised with the same cassette. To establish the efficacy of the pDR5 promoter in barely system, some transgenics were also raised with pDR5:GUS and pDR5:NLS-eGFP (FIGS. 23A-23F, 24A-24J). In comparison to overexpressing pOsUbi:GUS, pDR5:GUS expression under control condition was very weak (FIGS. 23B-23C).

MtNIN = test: Relative expression of MtNIN in M. truncatula roots after auxin analogue treatment; type: in vivo, Medicago truncatula; conditions: exogenous treatment 0.1, 1 or 10 μM for 16 hours and 2 days
Method: Germinated seedlings (approx. 4 days after germination) are moved to FPmod plates supplemented with 0.1 μM, 1 μM, or 10 μM NAA, 0.8% agarose (Sigma), and adjusted to pH 7. The seedlings were maintained for 16 hours and 2 days under 16 h-day and 8 h-night cycle at 24-22° C. before harvesting them for RNA extraction.
Total RNA was reverse-transcribed using SuperScript™ III Reverse Transcriptase (Life Technologies) and anchored dT17 primers as described in the manufacturer's protocol. About 1 μl of cDNA was used to set up real-time RT-qPCR in a […] reaction system with 2×SYBR™ Green PCR master mixes (PCR biosystems) using an ABI Proflex7 Real-Time PCR system. PCR program: 1 cycle at 50° C. for 2 min, 1 cycle at 95° C. for 5 min, and 40 cycles at 95° C. for 30 s and 60° C. for 30s. Expression data were obtained from 3 independent biological repetitions. Calculations were done using the cycle threshold method using MtEF1a, DgActin and FvHistoneH4 as the endogenous control.

DgNIN = test: Relative expression of DgNIN in D. glomerata roots (real-time PCR, normalized to DgActin); type: in vivo, Datisca glomerata; conditions: 10 days post treatment with 100^−6M NAA
Method: (§2) Germinated seedlings (approx. 4 weeks after germination) are moved to ½MS plates supplemented with 0.5 g/L MES (Merck), 100^−6M NAA, 0.8% agarose (Sigma) and adjusted to pH 5.8. The seedlings were maintained for 10 days under a 16 h-day and 8 h-night cycle at 22-24° C. before harvesting for RNA extraction.
(§3) Each plant root system consisting of transformed root or nodules was harvested and each individual root system formed a biological replicate; 3 or more technical replicates were prepared from each root system having a 100-150 mg sample. RNA was extracted using a modified extraction buffer containing 2% SDS (v/v), 100 mM Tris-HCl pH 8.0, 1.4M NaCl, and 20 mM EDTA. The samples were crushed with tungsten-carbide beads (Qiagen) in a mechanical pulverize (Spex Geno/Grinder®) in the presence of 12 μl/ml β-mercaptoethanol (Sigma) and 50 mg PVPP (Sigma). The powder was resuspended with the extraction buffer followed by treatment with chloroform:iso-amyl alcohol (24:1)(Melford) and chloroform (Sigma). […] The extracted RNA was quantified using a NanoDrop® (Thermo) and then treated for DNase digestion using TURBO DNA-free™ kit (Thermo) using the manufacturer protocol. […] Quantitative real-time polymerase chain reaction (qRT-PCR) was performed in technical replicates using SyGreen mix Lo-ROX (PCR Biosystems) using QuantStudio™ 7 Flex system (ABI) in a total volume of 10 μl. […]

DgNIN2 = test: Relative expression of DgNIN2 in D. glomerata roots (real-time PCR, normalized to DgActin); type: in vivo, Datisca glomerata; conditions: 10 days post treatment with 100^−6M NAA
Method: as §2, §3

pDR5:GUS [1] = test: pDR5:GUS auxin signaling readout in stable F. vesca lines; type: in vivo, Fragaria vesca; design: dose or concentration left out as unconfirmed
Method: Tissue culture plants growing in SMR (approximately 4 weeks after transfer) were moved to ½ Hoagland's media plates supplemented with 100^−6M NAA, 0.8% agarose (Sigma). The plants were maintained for 4 weeks under a 16 h-day and 8 h-night cycle at 22-24° C. before harvesting for phenotyping and RNA extraction.
as §1, with “(Leica).” for “(Leica). For ruthenium red staining the staining solution was prepared (0.1% ruthenium red in sterile water) and a few microliters are added over each section and subsequently washed using sterile deionized water. For toluidine blue staining, 0.1% toluidine blue staining solution was prepared in deionized water and a few microliters are added over each section and subsequently washed using sterile deionized water.”

pDR5:GUS [2] = test: pDR5:GUS expression in barley STARTS lines post auxin treatment; type: in vivo, Hordeum vulgare; conditions: 100 μM NAA, 3 weeks post treatment
Method: as §1

Row | SMILES | GUS staining of pDgNIN:GUS roots (pDgNIN:GUS) | GUS staining of pDgNIN2:GUS roots (pDgNIN2:GUS) | activation of MtNIN expression (MtNIN) | also measured
1 | CC(=O)N[C@H]1[C@H](O[C@H]2[C@H](O)[C@@H](NC(C)=O)[C@H](O[C@H]3[C@H](O)[C@@H](NC(C)=O)[C@H](O[C@H]4[C@H](O)[C@@H](NC(C)=O)C(O)O[C@@H]4CO)O[C@@H]3CO)O[C@@H]2CO)O[C@H](CO)[C@@H](O[C@@H]2O[C@H](CO)[C@@H](O[C@@H]3O[C@H](CO)[C@@H](O[C@@H]4O[C@H](CO)[C@@H](O[C@@H]5O[C@H](CO)[C@@H](O)[C@H](O)[C@H]5NC(C)=O)[C@H](O)[C@H]4NC(C)=O)[C@H](O)[C@H]3NC(C)=O)[C@H](O)[C@H]2NC(C)=O)[C@@H]1O (stereo partly shown) [C08] | no staining | failed to induce any NIN expression |  | 
2 | CC(=O)N[C@H]1[C@H](O[C@H]2[C@H](O)[C@@H](NC(C)=O)C(O)O[C@@H]2CO)O[C@H](CO)[C@@H](O[C@@H]2O[C@H](CO)[C@@H](O[C@@H]3O[C@H](CO)[C@@H](O)[C@H](O)[C@H]3NC(C)=O)[C@H](O)[C@H]2NC(C)=O)[C@@H]1O (stereo partly shown) [C04] | intense staining in the root vasculature and near the root tip | did not show staining |  | 
3 | O=C(O)COc1ccc(Cl)cc1Cl [2,4D, 2,4-Dichlorophenoxyacetic acid] |  |  | differential activation of MtNIN expression | pDR5:NLS-eGFP signal (pDR5:NLS-eGFP): eGFP localization could be seen in the nucleus
4 | O=C(O)Cc1cccc2ccccc12 [NAA, 1-naphthalene acetic acid] |  |  | differential activation of MtNIN expression | increase in the expression of DgNIN as compared to the control treated root samples (DgNIN): ~4 fold; increase in the expression of DgNIN2 as compared to the control treated root samples (DgNIN2): ~12 fold; pDR5:GUS staining pattern (pDR5:GUS [1]; +N+P+NAA): non-specific expression throughout the root system; pDR5:GUS staining pattern (pDR5:GUS [1]; −N+P+NAA (N limiting condition)): localized GUS staining in the bump like structures; pDR5:GUS staining (pDR5:GUS [2]): GUS staining was visible in the bump-like structures
5 | O=C(O)CCCc1c[nH]c2ccccc12 [IBA, Indole-3-butyric acid] |  |  | differential activation of MtNIN expression | 
